Values of other authors, collected in patent US20230111210A1, “COCRYSTAL ANTIOXIDANTS OF PROTOCATECHUIC ACID WITH L-THEANINE FOR THE TREATMENT OF OXIDATIVE STRESS AND INFLAMMATORY CONDITIONS” (priority 2020, published 2023).
≈ marks a conversion by molar mass, not a printed value.

Assays:
[1] = not given; remark: listed apart in the source
rabbits = conditions: rabbit, in vivo
[2] = tested on: AMPA (α-amino-3-hydroxy-5-methyl-4-isoxazolepropionic acid) receptors
[3] = tested on: NMDA (N-methyl-D-Aspartate) receptors
rats = conditions: rat, in vivo

| SMILES | pKa | solubility in water [1] [mg/mL] | oral LD50 (rabbits) | solubility in water (in words) [1] | affinity for AMPA receptors [2] | affinity for Kainate receptors (Kainate receptors) | affinity for NMDA receptors [3] | LD50 (rats) |
| --- | --- | --- | --- | --- | --- | --- | --- | --- |
| O=C(O)c1ccc(O)c(O)c1 [Protocatechuic acid, 3,4-dihydroxybenzoic acid] | 4.26 | 18.2 (≈ 118 mM) | greater than 3000 mg/kg | – | – | – | – | – |
| CCNC(=O)CC[C@H](N)C(=O)O [L-theanine, N-ethyl-L-glutamine] | 2.35 | – | – | soluble in water | micromolar affinities | micromolar affinities | micromolar affinities | greater than 5000 mg/kg |
